The compounds below were run against MarA (Escherichia coli, UniProt P0ACH5) (assay: Selective marker (ccdB) under MarA-activated promoter; cell survival under MarA expression (Example 2)). Details: inhibition of MarA; cell survival under conditions of MarA expression.
Type: cell-based
Parameters: key: *: good inhibition of MarA; **: very good inhibition of MarA
Source text: In this example, the expression of a selective marker (e.g., ccdB) is put under the direct control of a promoter activated by MarA (e.g., inaA, galT, or micF). In the absence of MarA, the expression of the selective marker is silent and cells survive. Synthesis of MarA from an inducible plasmid in a bacterial or yeast cell leads to the activation of the inaA promoter, expression of ccdB, and subsequently results in cell death. Compounds that inhibit MarA are those that permit cell survival under conditions of MarA expression. In Table 4, * indicates good inhibition of MarA and ** indicates very good inhibition of MarA.

Sequence of MarA (P0ACH5 whole entry, looked up): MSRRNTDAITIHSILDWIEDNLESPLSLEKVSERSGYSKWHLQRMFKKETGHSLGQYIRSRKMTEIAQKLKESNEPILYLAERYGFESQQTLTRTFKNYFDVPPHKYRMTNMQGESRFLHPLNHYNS

Compound	MarA inhibition score (cell survival)
COc1ccc2c(=O)cc(-c3ccccc3)oc2c1 [BA, 7-methoxy-2-phenyl-4H-chromen-4-one]	*
CCCCSc1nnc2c(n1)OC(c1ccc(OCC)cc1)Nc1ccccc1-2 (centres unmarked) [J, 3-Butylsulfanyl-6-(4-ethoxy-phenyl)-6,7-dihydro-5-oxa-1,2,4,7-tetraaza-dibenzo[a,c]cycloheptene]	*
CN(C)c1ccc(-c2cc(=O)c3ccccc3o2)cc1 [AW, 2-[4-(dimethylamino)phenyl]-4H-chromen-4-one]	**
CCCCSc1nnc2c(n1)OC(c1ccc(OC)cc1OC)Nc1ccccc1-2 (centres unmarked) [H, 3-Butylsulfanyl-6-(2,4-dimethoxy-phenyl)-6,7-dihydro-5-oxa-1,2,4,7-tetraaza-dibenzo[a,c]cycloheptene]	*
O=C(O)COn1c(-c2ccccc2)nc2ccc([N+](=O)[O-])cc21 [BD, 2-[(6-nitro-2-phenyl-1H-1,3-benzimidazol-1-yl)oxy]acetic acid]	*
O=C1C=Cc2ccccc2/C1=N\Oc1ccc2noc3c2c1C(=O)c1ccccc1-3 [Z, [1,2]Naphthoquinone 1-[O-(6-oxo-6H-anthra[1,9-cd]isoxazol-5-yl)-oxime]]	*
O=c1cc(-c2ccc(O)cc2)oc2ccccc12 [BG, 2-(4-hydroxyphenyl)-4H-chromen-4-one]	*
CCOC(=O)C1=C(C)N=c2s/c(=C\c3ccc(-c4cccc(C(=O)O)c4)o3)c(=O)n2C1c1ccc(N(C)C)cc1 (centres unmarked) [W, 2-[5-(3-Carboxy-phenyl)-furan-2-ylmethylene]-5-(4-dimethylamino-phenyl)-7-methyl-3-oxo-2,3-dihydro-5H-thiazolo[3,2-a]pyrimidine-6-carboxylic acid ethyl ester]	**
CSc1nnc2c(n1)OC(c1ccc(-c3ccc([N+](=O)[O-])cc3)o1)Nc1ccccc1-2 (centres unmarked) [D, 3-Methylsulfanyl-6-[5-(4-nitro-phenyl)-furan-2-yl]-6,7-dihydro-5-oxa-1,2,4,7-tetraaza-dibenzo[a,c]cycloheptene]	*
CCOC(=O)C(C(N)=O)C1(O)OC(c2ccc(C)cc2)=CC1=O (centres unmarked) [BC, 2-(2-Hydroxy-3-oxo-5-p-tolyl-2,3-dihydro-furan-2-yl)-malonamic acid ethyl ester]	*
Cc1ccc(COn2c(-c3ccccc3)nc3ccc([N+](=O)[O-])cc32)cc1 [AJ, 1-(4-Methyl-benzyloxy)-6-nitro-2-phenyl-1H-benzoimidazole]	*
O=[N+]([O-])c1ccc2nc(-c3ccccc3)n(OCc3ccccc3)c2c1 [AI, 1-Benzyloxy-6-nitro-2-phenyl-1H-benzoimidazole]	**
C=Cc1nc2s/c(=C\c3cn(-c4ccccc4)nc3-c3ccc(F)cc3)c(=O)n2c1C [AO, 2-[3-(4-Fluoro-phenyl)-1-phenyl-1H-pyrazol-4-ylmethylene]-5-methyl-6-vinyl-imidazo[2,1-b]thiazol-3-one]	**
CCCSc1nnc2c(n1)OC(c1ccc(-c3cccc([N+](=O)[O-])c3)o1)Nc1ccccc1-2 (centres unmarked) [L, 6-[5-(3-Nitro-phenyl)-furan-2-yl]-3-propylsulfanyl-6,7-dihydro-5-oxa-1,2,4,7-tetraaza-dibenzo[a,c]cycloheptene]	**
c1ccc(CSc2ncc(-c3nnnn3-c3ccccc3)c(-c3ccccc3)n2)cc1 [AY, 2-(benzylthio)-4-phenyl-5-(1-phenyl-1H-1,2,3,4-tetraazol-5-yl)pyrimidine]	**
CCSc1nnc2c(n1)OC(c1ccc(O)c(O)c1)Nc1ccccc1-2 (centres unmarked) [E, 4-(3-Ethylsulfanyl-6,7-dihydro-5-oxa-1,2,4,7-tetraaza-dibenzo[a,c]cyclo-hepten-6-yl)-benzene-1,2-diol]	*
O=C(O)COn1c(-c2ccccc2)nc2ccc([N+](=O)[O-])cc21 [AH, (6-Nitro-2-phenyl-benzoimidazol-1-yloxy)-acetic acid]	**
c1ccc(COn2c(-c3ccccc3)nc3ncccc32)cc1 [AX, 1-(benzyloxy)-2-phenyl-1H-imidazo[4,5-b]pyridine]	**
C=CCOc1ccc(C2Nc3ccccc3-c3nnc(SCCCC)nc3O2)cc1 (centres unmarked) [I, 6-(4-Allyloxy-phenyl)-3-butylsulfanyl-6,7-dihydro-5-oxa-1,2,4,7-tetraaza-dibenzo[a,c]cycloheptene]	**

Compound	MarA inhibition score (cell survival)
Cn1c(=O)c2c3oc(-c4ccc([N+](=O)[O-])cc4)nc3c(=O)n(-c3ccccc3)c2n(C)c1=O [AK, 6,8-Dimethyl-2-(4-nitro-phenyl)-5-phenyl-5H,6H-1-oxa-3,5,6,8-tetraaza-cyclopenta[a]naphthalene-4,7,9-trione]	**
O=c1cc(-c2ccccc2)oc2ccc(F)cc12 [AZ, 6-fluoro-2-phenyl-4H-chromen-4-one]	**
O=c1cc(-c2ccc(F)cc2)oc2ccccc12 [BE, 2-(4-fluorophenyl)-4H-chromen-4-one]	*
CSc1nnc2c(n1)OC(c1ccc(I)o1)Nc1ccccc1-2 (centres unmarked) [A, 6-(5-Iodo-furan-2-yl)-3-methylsulfanyl-6,7-dihydro-5-oxa-1,2,4,7-tetraaza-dibenzo[a,c]cycloheptene]	**
CCOC(=O)C1=C(C)N=c2s/c(=C/c3ccc(-c4ccc(C)c([N+](=O)[O-])c4)o3)c(=O)n2C1c1ccc(N(C)C)cc1 (centres unmarked) [X, 5-(4-Dimethylamino-phenyl)-7-methyl-2-[5-(4-methyl-3-nitro-phenyl)-furan-2-ylmethylene]-3-oxo-2,3-dihydro-5H-thiazolo[3,2-a]pyrimidine-6-carboxylic acid ethyl ester]	**
CCCSc1nnc2c(n1)OC(c1ccc(OCc3ccccc3)cc1)Nc1ccccc1-2 (centres unmarked) [F, 6-(4-Benzyloxy-phenyl)-3-propylsulfanyl-6,7-dihydro-5-oxa-1,2,4,7-tetraaza-dibenzo[a,c]cycloheptene]	**
CCOC(=O)C1=C(C)N=c2s/c(=C\c3ccc(-c4cccc(C(=O)O)c4)o3)c(=O)n2C1c1c(OC)ccc2ccccc12 (centres unmarked) [N, 2-[5-(3-Carboxy-phenyl)-furan-2-ylmethylene]-5-(2-methoxy-naphthalen-1-yl)-7-methyl-3-oxo-2,3-dihydro-5H-thiazolo[3,2-a]pyrimidine-6-carboxylic acid ethyl ester]	**
CSc1nnc2c(n1)OC(c1ccc([N+](=O)[O-])o1)Nc1ccccc1-2 (centres unmarked) [C, 3-Methylsulfanyl-6-(5-nitro-furan-2-yl)-6,7-dihydro-5-oxa-1,2,4,7-tetraaza-dibenzo[a,c]cycloheptene]	*
CCOC(=O)C1=C(C)N=c2s/c(=C/c3ccc(-c4cccc(C(F)(F)F)c4)o3)c(=O)n2C1c1ccccc1 (centres unmarked) [U, 7-Methyl-3-oxo-5-phenyl-2-[5-(3-trifluoromethyl-phenyl)-furan-2-ylmethylene]-2,3-dihydro-5H-thiazolo[3,2-a]pyrimidine-6-carboxylic acid ethyl ester]	**
Cc1ccc(-c2nc3c(=O)n(-c4ccccc4)c4c(c(=O)n(C)c(=O)n4C)c3o2)cc1 [AL, 6,8-Dimethyl-5-phenyl-2-p-tolyl-5H,6H-1-oxa-3,5,6,8-tetraaza-cyclopenta[a]naphthalene-4,7,9-trione]	*
N#Cc1c(-c2ccc3c(c2)OCO3)c(C#N)c2nc3ccccc3n2c1N [AB, 1-Amino-3-benzo[1,3]dioxol-5-yl-benzo[4,5]imidazo[1,2-a]pyridine-2,4-dicarbonitrile]	**
COn1c(-c2ccc(C)cc2)nc2ncccc21 [BF, 1-methoxy-2-(4-methylphenyl)-1H-imidazo[4,5-b]pyridine]	*
CCOC(=O)C1=C(C)N=c2sc(=Cc3ccc(-c4ccc([N+](=O)[O-])cc4C)o3)c(=O)n2C1c1ccc2c(c1)OCO2 (centres unmarked) [P, 5-Benzo[1,3]dioxol-5-yl-7-methyl-2-[5-(2-methyl-4-nitro-phenyl)-furan-2-ylmethylene]-3-oxo-2,3-dihydro-5H-thiazolo[3,2-a]pyrimidine-6-carboxylic acid ethyl ester]	*
CSc1cccc(NC(=O)CSc2nnc(-c3ccc4nonc4c3)n2C)c1 [AE, 2-(5-Benzo[1,2,5]oxadiazol-5-yl-4-methyl-4H-[1,2,4]triazol-3-ylsulfanyl)-N-(3-methylsulfanyl-phenyl)-acetamide]	*
O=c1/c(=C/c2c[nH]nc2-c2ccccc2)sc2nc3ccccc3n12 [M, 2-(3-Phenyl-1H-pyrazol-4-ylmethylene)-benzo[4,5]imidazo[2,1-b]thiazol-3-one]	**
CCCSc1nnc2c(n1)OC(c1ccc(OC)cc1)Nc1ccccc1-2 (centres unmarked) [K, 6-(4-Methoxy-phenyl)-3-propylsulfanyl-6,7-dihydro-5-oxa-1,2,4,7-tetraaza-dibenzo[a,c]cycloheptene]	*
O=[N+]([O-])c1ccc2nc(-c3ccccc3)n(OCc3cccc(C(F)(F)F)c3)c2c1 [AG, 6-Nitro-2-phenyl-1-(3-trifluoromethyl-benzyloxy)-1H-benzoimidazole]	**
COC(=O)c1ccccc1NC(=O)CSc1nnc(-c2ccco2)n1-c1ccccc1 [AC, 2-[2-(5-Furan-2-yl-4-phenyl-4H-[1,2,4]triazol-3-ylsulfanyl)-acetylamino]-benzoic acid methyl ester]	*
O=c1/c(=C/c2cn(-c3ccccc3)nc2-c2ccc(F)cc2)sc2nc3ccccc3n12 [AM, 2-[3-(4-Fluoro-phenyl)-1-phenyl-1H-pyrazol-4-ylmethylene]-benzo[4,5]imidazo[2,1-b]thiazol-3-one]	**
